According to publication PMC7074166, “Screening for Small Molecule Modulators of Trypanosoma brucei Hsp70 Chaperone Activity Based upon Alcyonarian Coral-Derived Natural Products” (Marine Drugs, 2020):
Read-outs that look alike come from different tables or passages of the source.

System: bloodstream form T. b. brucei parasites
Assay: Resazurin-based anti-trypanosomal assay on bloodstream form T. b. brucei parasites
Type: cell-based, Trypanosoma brucei brucei
Experimental: Bloodstream form T. b. brucei Lister 927 variant 221 strain parasites were cultured in filter sterilized complete Iscoves Modified Dulbeccos Media (IMDM) based HM1-9 medium (IMDM base powder, […] sodium bicarbonate, 1 mM hypoxanthine, 1 mM sodium pyruvate, 0.16 mM thymidine, 0.05 mM bathocuprone sulphate acid, 10% (v/v) heat inactivated foetal bovine serum, 1.5 mM L-cysteine, 0.2 mM β-mercaptoethanol, pH 7.5) in a humidified chamber at 37 °C with an atmosphere of 5% CO2. Parasite growth was monitored using a Neubauer haemocytometer to count the cell number, after which cells were diluted, according to their density, in the described pre-warmed media.
All compounds of interest were resuspended to stocks of 30 mM in DMSO and stored at −80 °C prior to use in in vitro experiments. For assessment of anti-trypanosomal activity, compounds were added to in vitro cultures of bloodstream form T. b. brucei parasites (1 × 10^5 cells/mL) in 96-well plates at a fixed concentration of 20 μM. After an incubation period of 48 h, the number of parasites surviving drug exposure were determined using a resazurin-based cytotoxicity assay. Resazurin is an oxidation–reduction sensitive dye that is reduced by living cells to resorufin. Resorufin is a fluorophore (Excitation560/Emission590) and thus was quantified in a multi-well fluorescence plate reader. Results are expressed as % parasite viability—the resorufin fluorescence in small molecule-treated wells relative to untreated controls. Assessment of each small molecule was conducted in duplicate, with error bars representing standard deviation (SD). […] The compounds were added to in vitro cultures of bloodstream form T. b. brucei parasites (1 × 10^5 cells/mL) in 96-well plates in a 3-fold dilution series with 100 μM as the highest concentration. After an incubation period of 48 h, the number of parasites surviving drug exposure were determined as previously mentioned. The % parasite viability was determined as previously mentioned. The IC50 (the concentration of compound required to decrease cell viability of T. b. brucei parasites by 50% compared to those grown in the absence of the compound) values for each of the compounds were determined from a dose–response curve by non-linear regression generated using GraphPad Prism® (v. 7.0; San Diego, CA, USA) software. For comparative purposes, pentamidine at a fixed concentration of 1 μM was employed as a drug standard.

[1] = Trypanosoma brucei, Table 1, T. b. brucei parasites cultured in vitro, 48 h, dose-response, read-out: IC50/μM
[2] = Trypanosoma brucei, Table S1, 48 select compounds, T. b. brucei, 48 h, read-out: IC50/

Molecule | IC50 (Table 1, T. b. brucei parasites cultured in vitro, 48 h, dose-response, read-out: IC50/μM) | IC50 (Table S1, 48 select compounds, T. b. brucei, 48 h, read-out: IC50/) | IC50 [1] | IC50 [2] | IC50 (Trypanosoma brucei, T. b. brucei parasites, stated as bound, read-out: IC50 values)
6-chloro-7-((2E,6E)-3,7,11-trimethyldodeca-2,6,10-trien-1-yl)-9H-purine [Compound 18] | 9.3 µM | 9.28 µM | – | – | –
CC(C)=CCC/C(C)=C/CCC(C)=CCn1cnc(N)c2ncnc1-2 [Compound 6, 3-((6E)-3,7,11-Trimethyldodeca-2,6,10-trien-1-yl)-3H-purin-6-amine] | – | – | 12.7 µM | 12.7 µM | –
CC(C)=CCC/C(C)=C/CCC(C)=CCn1cnc2c(N)ncnc21 [Compound 7, 9-((6E)-3,7,11-trimethyldodeca-2,6,10-trien-1-yl)-9H-purin-6-amine] | – | – | 47.7 µM | 47.7 µM | –
CC(C)=CCC/C(C)=C/CC/C(C)=C/CC/C(C)=C/Cn1cnc2c(N)ncnc21 [Compound 8, 9-((2E,6E,10E)-3,7,11,15-Tetramethylhexadeca-2,6,10,14-tetraen-1-yl)-9H-purin-6-amine] | – | – | 13.4 µM | 13.4 µM | –
CC(C)=CCC/C(C)=C/Cn1cnc2c(N(C)C)ncnc21 [Compound 9, (E)-9-(3,7-Dimethylocta-2,6-dien-1-yl)-N,N-dimethyl-9H-purin-6-amine] | – | – | 28.4 µM | 28.4 µM | –
CC(C)=CCC/C(C)=C/CCC(C)=CCn1cnc2c(N(C)C)ncnc21 [Compound 11, N,N-Dimethyl-9-((6E)-3,7,11-trimethyldodeca-2,6,10-trien-1-yl)-9H-purin-6-amine] | – | – | 9.5 µM | 9.48 µM | –
CC(C)=CCC/C(C)=C/CCC(C)=CCn1cnc(N(C)C)c2ncnc1-2 [Compound 12, N,N-dimethyl-3-((6E)-3,7,11-trimethyldodeca-2,6,10-trien-1-yl)-3H-purin-6-amine] | – | – | 14 µM | – | –
CC(C)=CCC/C(C)=C/CC/C(C)=C/CC/C(C)=C\Cn1cnc2c(N(C)C)ncnc21 [Compound 13, N,N-Dimethyl-9-((2Z,6E,10E)-3,7,11,15-tetramethylhexadeca-2,6,10,14-tetraen-1-yl)-9H-purin-6-amine] | – | – | 8.7 µM | 8.69 µM | –
CC(C)=CCC/C(C)=C/CC/C(C)=C/CC/C(C)=C/Cn1cnc2c(N(C)C)ncnc21 [Compound 14, N,N-dimethyl-9-((2E,6E,10E)-3,7,11,15-tetramethylhexadeca-2,6,10,14-tetraen-1-yl)-9H-purin-6-amine] | – | – | 9.2 µM | 9.22 µM | –
CC(C)=CCC/C(C)=C/Cn1cnc2c(Cl)ncnc21 [Compound 15, (E)-6-Chloro-9-(3,7-dimethylocta-2,6-dien-1-yl)-9H-purine] | – | – | 12.2 µM | 12.2 µM | –
CC(C)=CCC/C(C)=C/Cn1cnc2ncnc(Cl)c21 [Compound 16, (E)-6-chloro-7-(3,7-dimethylocta-2,6-dien-1-yl)-7H-purine] | – | – | 11 µM | 11 µM | –
CC(C)=CCC/C(C)=C/CCC(C)=CCn1cnc2c(Cl)ncnc21 [Compound 17, 6-Chloro-9-((6E)-3,7,11-trimethyldodeca-2,6,10-trien-1-yl)-9H-purine] | – | – | 12.9 µM | 12.9 µM | –
CC(C)=CCC/C(C)=C/CC/C(C)=C/CC/C(C)=C/Cn1cnc2c(Cl)ncnc21 [Compound 19, 6-Chloro-9-((2E,6E,10E)-3,7,11,15-tetramethylhexadeca-2,6,10,14-tetraen-1-yl)-9H-purine] | – | – | 6.8 µM | 6.79 µM | –
CC(C)=CCC/C(C)=C/CC/C(C)=C/CC/C(C)=C/Cn1cnc2ncnc(Cl)c21 [Compound 20, 6-chloro-7-((2E,6E,10E)-3,7,11,15-tetramethylhexadeca-2,6,10,14-tetraen-1-yl)-7H-purine] | – | – | 11 µM | 11 µM | –
CC(C)=CCC/C(C)=C/CC/C(C)=C/CC/C(C)=C\Cn1cnc2ncnc(Cl)c21 [Compound 21, 6-chloro-7-((2Z,6E,10E)-3,7,11,15-tetramethylhexadeca-2,6,10,14-tetraen-1-yl)-7H-purine] | – | – | 19.1 µM | 19.1 µM | –
CC(C)=CCC/C(C)=C/Cn1cnc2c1c(=O)[nH]c(=O)n2C [Compound 29, (E)-7-(3,7-Dimethylocta-2,6-dien-1-yl)-3-methyl-3,7-dihydro-1H-purine-2,6-dione] | – | – | 18.9 µM | 18.9 µM | –
CC(C)=CCC/C(C)=C/CC/C(C)=C\Cn1cnc2c1c(=O)[nH]c(=O)n2C [Compound 30, 3-Methyl-7-((2Z,6E)-3,7,11-trimethyldodeca-2,6,10-trien-1-yl)-3,7-dihydro-1H-purine-2,6-dione] | – | – | 4.6 µM | 4.62 µM | –
CC(C)=CCC/C(C)=C/CC/C(C)=C/CC/C(C)=C\Cn1cnc2c1c(=O)[nH]c(=O)n2C [Compound 32, 3-Methyl-7-((2Z,6E,10E)-3,7,11,15-tetramethylhexadeca-2,6,10,14-tetraen-1-yl)-3,7-dihydro-1H-purine-2,6-dione] | – | – | 5.9 µM | – | –
CC(C)=CCC/C(C)=C/CC/C(C)=C/CC/C(C)=C/Cn1cnc2c1c(=O)[nH]c(=O)n2C [Compound 33, 3-methyl-7-((2E,6E,10E)-3,7,11,15-tetramethylhexadeca-2,6,10,14-tetraen-1-yl)-3,7-dihydro-1H-purine-2,6-dione] | – | – | 10.2 µM | 10.2 µM | –
CC(C)=CCC/C(C)=C/CC/C(C)=C/CC/C(C)=C\Cn1cnc2c1c(=O)n(C)c(=O)n2C [Compound 36, 1,3-Dimethyl-7-((2Z,6E,10E)-3,7,11,15-tetramethylhexadeca-2,6,10,14-tetraen-1-yl)-3,7-dihydro-1H-purine-2,6-dione] | – | – | 5.2 µM | 5.17 µM | –
CC(C)=CCC/C(C)=C/CC/C(C)=C/CC/C(C)=C/Cn1cnc2c1c(=O)n(C)c(=O)n2C [Compound 37, 1,3-dimethyl-7-((2E,6E,10E)-3,7,11,15-tetramethylhexadeca-2,6,10,14-tetraen-1-yl)-3,7-dihydro-1H-purine-2,6-dione] | – | – | 21.6 µM | – | –
CC(C)=CCC/C(C)=C/CC12NC(=O)N=C1N(C)C(=O)N(C)C2=O (centres unmarked) [Compound 42, (E)-5-(3,7-Dimethylocta-2,6-dien-1-yl)-1,3-dimethyl-5,7-dihydro-1H-purine-2,6,8(3H)-trione] | – | – | 10.9 µM | 10.9 µM | –
CC(C)=CCC/C(C)=C/CCC(C)=CCn1c(=O)[nH]c2c(=O)n(C)c(=O)n(C)c21 [Compound 44, 1,3-dimethyl-9-((6E)-3,7,11-trimethyldodeca-2,6,10-trien-1-yl)-7,9-dihydro-1H-purine-2,6,8(3H)-trione] | – | – | 16.6 µM | 16.6 µM | –
CC(C)=CCC/C(C)=C/CCC(C)=CCn1cc2c(=O)ncn(CC=C(C)CC/C=C(\C)CCC=C(C)C)c2n1 [Compound 48, 2,7-bis((6E)-3,7,11-trimethyldodeca-2,6,10-trien-1-yl)-2,7-dihydro-4H-pyrazolo[3,4-d]pyrimidin-4-one] | – | – | 5.5 µM | 5.47 µM | < 7 µM
CC(C)=CCC/C(C)=C/CC/C(C)=C/Cn1cnc2nncc-2c1O [Compound 49, 5-((2E,6E)-3,7,11-trimethyldodeca-2,6,10-trien-1-yl)-5H-pyrazolo[3,4-d]pyrimidin-4-ol] | – | – | 16.7 µM | 16.7 µM | –
CC(C)=CCC/C(C)=C/CC/C(C)=C/CC/C(C)=C/Cn1cnc2c(cnn2C/C=C(\C)CC/C=C(\C)CC/C=C(\C)CCC=C(C)C)c1=O [Compound 50, 1,5-Bis((2E,6E,10E)-3,7,11,15-tetramethylhexadeca-2,6,10,14-tetraen-1-yl)-1,5-dihydro-4H-pyrazolo[3,4-d]pyrimidin-4-one] | – | – | 2.1 µM | 2.07 µM | –
CC(C)=CCC/C(C)=C/CCC(C)=CCn1ccc(=O)[nH]c1=O [Compound 55, 1-((6E)-3,7,11-Trimethyldodeca-2,6,10-trien-1-yl)pyrimidine-2,4(1H,3H)-dione] | – | – | 16.5 µM | 16.5 µM | –
CC(C)=CCC/C(C)=C/CC/C(C)=C/CC/C(C)=C\Cn1ccc(=O)[nH]c1=O [Compound 56, 1-((2Z,6E,10E)-3,7,11,15-Tetramethylhexadeca-2,6,10,14-tetraen-1-yl)pyrimidine-2,4(1H,3H)-dione] | – | – | 6.2 µM | – | –
CC(C)=CCC/C(C)=C/CC/C(C)=C/CC/C(C)=C/Cn1cc(C)c(=O)[nH]c1=O [Compound 59, 5-Methyl-1-((2E,6E,10E)-3,7,11,15-tetramethylhexadeca-2,6,10,14-tetraen-1-yl)pyrimidine-2,4(1H,3H)-dione] | – | – | 15.8 µM | – | –
CC(C)=CCC/C(C)=C/CCC(C)=CCN1C(=O)c2ccccc2C1=O [Compound 68, 2-((6E)-3,7,11-Trimethyldodeca-2,6,10-trien-1-yl)isoindoline-1,3-dione] | – | – | 32.2 µM | 32.2 µM | –
